This note sets out measurements from US11168086B2, “Methods of synthesizing pyrazine compounds” (Hoffmann-La Roche Inc., priority 2015, dated 2021).

The assay has as its system HBV. Put plainly: HBV inhibition assay: anti-HBV activity in vitro in HepG2.2.15 cells (extracellular HBV DNA by qPCR). It counts as cell-based. The settings on record: Hepatitis B virus, 120 h, five days after compound treatment, extracellular HBV DNA in culture supernatant by qPCR, concentration at which HBV replication is inhibited by 50%. The procedure, abridged: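 HepG2.2.15 cells (stably carrying HBV genome) treated with half-log serially diluted compounds at 0.5% DMSO final for five days. Extracellular HBV DNA in supernatant quantified by qPCR after Proteinase K digestion; EC50 is concentration giving 50% inhibition of replication.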
Turning to `Cc1noc(C2CC(=O)N(c3cnn4c3CN(C(=O)Nc3cc(F)c(F)c(F)c3)[C@@H](C)C4)C2)n1` (stereo partly drawn) [Example 284, (6S)-6-methyl-3-[4-(3-methyl-1,2,4-oxadiazol-5-yl)-2-oxo-pyrrolidin-1-yl]-N-(3,4,5-trifluorophenyl)-6,7-dihydro-4H-pyrazolo[1,5-a]pyrazine-5-carboxamide], the response was half-maximal at 10 nM (EC50). On to `C[C@H]1Cn2ncc(N3CC(N(C)C(=O)c4ncco4)CC3=O)c2CN1C(=O)Nc1cc(F)c(F)c(F)c1` (stereo partly drawn) [Example 318, N-methyl-N-[1-[(6S)-6-methyl-5-[(3,4,5-trifluorophenyl)carbamoyl]-6,7-dihydro-4H-pyrazolo[1,5-a]pyrazin-3-yl]-5-oxo-pyrrolidin-3-yl]oxazole-2-carboxamide], for which the midpoint of the response, the EC50, lay at 45 nM.

In turn, `C[C@H]1Cn2ncc(N3CC(CO)CC3=O)c2CN1C(=O)Nc1ccc(F)c(Cl)c1` (stereo partly drawn) [Example 298, (6S)—N-(3-chloro-4-fluoro-phenyl)-3-[4-(hydroxymethyl)-2-oxo-pyrrolidin-1-yl]-6-methyl-6,7-dihydro-4H-pyrazolo[1,5-a]pyrazine-5-carboxamide] yielded an EC50 of 104 nM. Compared with the last compound, the EC50 is about 2.3-fold higher. The compound `C[C@H]1Cn2ncc(N3CC(c4cnn(C)c4)CC3=O)c2CN1C(=O)Nc1cc(F)c(F)c(F)c1` (stereo partly drawn) [Example 412, (6S)-6-methyl-3-[4-(1-methylpyrazol-4-yl)-2-oxo-pyrrolidin-1-yl]-N-(3,4,5-trifluorophenyl)-6,7-dihydro-4H-pyrazolo[1,5-a]pyrazine-5-carboxamide] returned an EC50 of 21 nM. Compared with the last compound, the EC50 is about 5-fold lower. Compound `C[C@H]1Cn2ncc(N3CC(c4cccnc4)CC3=O)c2CN1C(=O)Nc1cc(F)c(F)c(F)c1` (stereo partly drawn) [Example 351, (6S)-6-methyl-3-[2-oxo-4-(3-pyridyl)pyrrolidin-1-yl]-N-(3,4,5-trifluorophenyl)-6,7-dihydro-4H-pyrazolo[1,5-a]pyrazine-5-carboxamide] registered a concentration giving a half-maximal response (EC50) of 12 nM. Against the preceding compound, the EC50 is about 1.8-fold lower. The figure for `C[C@H]1Cn2ncc(N3CC(C)(c4nnco4)CC3=O)c2CN1C(=O)Nc1cc(F)c(F)c(F)c1` (stereo partly drawn) [Example 404, (6S)-6-methyl-3-[4-methyl-4-(1,3,4-oxadiazol-2-yl)-2-oxo-pyrrolidin-1-yl]-N-(3,4,5-trifluorophenyl)-6,7-dihydro-4H-pyrazolo[1,5-a]pyrazine-5-carboxamide] is 42 nM; for `C[C@H]1Cn2ncc(N3CC[C@H](O)C3=O)c2CN1C(=O)Nc1cc(F)c(F)c(F)c1` [Example 262, (6S)-3-[(3S)-3-hydroxy-2-oxo-pyrrolidin-1-yl]-6-methyl-N-(3,4,5-trifluorophenyl)-6,7-dihydro-4H-pyrazolo[1,5-a]pyrazine-5-carboxamide] it is 65 nM. `C#Cc1cc(NC(=O)N2CCn3cnc(-c4ccc(F)cc4F)c3C2)ccc1F` [Example 134, 1-(2,4-difluorophenyl)-N-(3-ethynyl-4-fluoro-phenyl)-6,8-dihydro-5H-imidazo[1,5-a]pyrazine-7-carboxamide] showed a concentration giving a half-maximal response (EC50) of 85 nM. The figure for `CC1CN(c2cnn3c2CN(C(=O)Nc2ccc(F)c(Cl)c2)[C@@H](C)C3)C(=O)N1` (stereo partly drawn) [Example 326, (6S)—N-(3-chloro-4-fluoro-phenyl)-6-methyl-3-(4-methyl-2-oxo-imidazolidin-1-yl)-6,7-dihydro-4H-pyrazolo[1,5-a]pyrazine-5-carboxamide] is 46 nM; for `C[C@H]1Cn2ncc(N3CC(COc4ncccn4)CC3=O)c2CN1C(=O)Nc1cc(F)c(F)c(F)c1` (stereo partly drawn) [Example 267, (6S)-6-methyl-3-[2-oxo-4-(pyrimidin-2-yloxymethyl)pyrrolidin-1-yl]-N-(3,4,5-trifluorophenyl)-6,7-dihydro-4H-pyrazolo[1,5-a]pyrazine-5-carboxamide] it is 39 nM.
